# Experimental data published in patent US12673946B2, “Pyrimidin-4(3H)-one derivatives as TRPV4 antagonists” (RaQualia Pharma Inc., priority 2020, dated 2026).
# Biological target: T1, human TRPV4 (Homo sapiens, UniProt Q9HBA0)
# T1 construct: host or cells: tetracycline-inducible Flp-In T-REx 293 cells
# Assay: Hypotonicity-induced Ca2+ influx (Fluo-4, FDSS)
# Format: cell-based
# Method in brief: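 Flp-In T-REx 293 cells with tetracycline-induced human TRPV4, loaded with Fluo-4 for 60 min at 25 °C. Compound added 5 min before hypotonic mannitol/CaCl2 solution. Ca2+ signal recorded for 4.5 min on FDSS.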
# [1] = Flp-In T-REx 293 cells expressing human TRPV4, examples listed under heading 'Human IC50<50 nM'
# [2] = Flp-In T-REx 293 cells stably expressing human TRPV4, compounds listed by potency bin (<10 nM Tables 96-1/96-2, <3 nM Table 97)
# T1 sequence (Q9HBA0 whole entry): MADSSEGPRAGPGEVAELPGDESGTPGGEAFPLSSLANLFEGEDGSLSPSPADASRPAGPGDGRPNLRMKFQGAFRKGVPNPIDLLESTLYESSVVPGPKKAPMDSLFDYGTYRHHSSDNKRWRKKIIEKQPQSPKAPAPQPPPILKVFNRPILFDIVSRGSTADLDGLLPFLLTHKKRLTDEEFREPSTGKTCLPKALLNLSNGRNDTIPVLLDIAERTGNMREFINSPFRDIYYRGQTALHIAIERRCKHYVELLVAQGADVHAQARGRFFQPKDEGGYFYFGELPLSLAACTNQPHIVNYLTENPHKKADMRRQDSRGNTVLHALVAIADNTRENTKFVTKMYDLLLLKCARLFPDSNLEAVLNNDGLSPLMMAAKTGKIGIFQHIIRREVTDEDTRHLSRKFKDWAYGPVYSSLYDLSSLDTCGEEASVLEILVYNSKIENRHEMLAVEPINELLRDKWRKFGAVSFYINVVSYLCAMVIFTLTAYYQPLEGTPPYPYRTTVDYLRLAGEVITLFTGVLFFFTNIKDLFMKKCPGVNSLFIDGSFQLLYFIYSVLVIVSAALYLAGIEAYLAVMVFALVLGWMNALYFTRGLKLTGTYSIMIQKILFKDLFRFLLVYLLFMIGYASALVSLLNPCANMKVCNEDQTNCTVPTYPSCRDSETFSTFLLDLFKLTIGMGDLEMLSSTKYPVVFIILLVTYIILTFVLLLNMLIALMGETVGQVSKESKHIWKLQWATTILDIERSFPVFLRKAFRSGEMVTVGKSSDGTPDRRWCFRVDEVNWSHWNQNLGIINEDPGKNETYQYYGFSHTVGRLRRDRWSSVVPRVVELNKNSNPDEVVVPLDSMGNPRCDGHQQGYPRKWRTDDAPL
Structure (SMILES),IC50 [1] [nM],IC50 [2] [nM]
O=C(Cc1cccc(-c2ccc(C(F)(F)F)cc2)c1)N1CCCc2nc(C3(c4cccc(Cl)c4)CC3)[nH]c(=O)c2C1 [17-128],< 50,< 10
O=C(Cc1cccc(-c2ccc(OC(F)(F)F)cc2)c1)N1CCCc2nc(C3(c4cccc(Cl)c4)CC3)[nH]c(=O)c2C1 [17-129],< 50,< 10
O=C(Cc1cccc(-c2ccc(Cl)cc2)c1)N1CCCc2nc(C3(c4cccc(Cl)c4)CC3)[nH]c(=O)c2C1 [17-130],< 50,< 10
N#Cc1ccc(-c2cccc(CC(=O)N3CCCc4nc(C5(c6ccccc6)CC5)[nH]c(=O)c4C3)c2)cc1 [17-131],< 50,–
CC(C)(C)c1ccc(-c2cccc(CC(=O)N3CCCc4nc(C5(c6ccccc6)CC5)[nH]c(=O)c4C3)c2)cc1 [17-132],< 50,–
O=C(Cc1cccc(-c2ccc(C(F)(F)F)cc2)c1)N1CCCc2nc(C3(c4ccccc4)CC3)[nH]c(=O)c2C1 [17-133],< 50,< 10
O=C(Cc1cccc(-c2ccc(OC(F)(F)F)cc2)c1)N1CCCc2nc(C3(c4ccccc4)CC3)[nH]c(=O)c2C1 [17-134],< 50,< 10
O=C(Cc1cccc(-c2ccc(Cl)cc2)c1)N1CCCc2nc(C3(c4ccccc4)CC3)[nH]c(=O)c2C1 [17-135],< 50,< 10
O=C(Cc1cccc(-c2cccc(Cl)c2)c1)N1CCCc2nc(C3(c4ccccc4)CC3)[nH]c(=O)c2C1 [17-136],< 50,< 10
O=C(Cc1cccc(-c2coc3ccccc23)c1)N1CCCc2nc(C3(c4ccccc4)CC3)[nH]c(=O)c2C1 [17-137],< 50,< 10
N#Cc1cc(Cl)cc(-c2cccc(CC(=O)N3CCCc4nc(C5(c6ccccc6)CC5)[nH]c(=O)c4C3)c2)c1 [17-138],< 50,< 10
O=C(Cc1ccccc1Oc1ccccc1)N1CCCc2nc(C3(c4cccc(Cl)c4)CC3)[nH]c(=O)c2C1 [17-139],< 50,< 10
O=C(Cc1cccc(Oc2ccccc2)c1)N1CCCc2nc(C3(c4cccc(Cl)c4)CC3)[nH]c(=O)c2C1 [17-140],< 50,–
CC(C)(C)c1cccc(CC(=O)N2CCCc3nc(C4(c5cccc(Cl)c5)CC4)[nH]c(=O)c3C2)c1 [17-141],< 50,< 10
CC(C)(C)c1cccc(CC(=O)N2CCCc3nc(C4(c5ccccc5)CC4)[nH]c(=O)c3C2)c1 [17-142],< 50,–
O=C(Cc1ccccc1Oc1ccccc1)N1CCCc2nc(C3(c4ccccc4)CC3)[nH]c(=O)c2C1 [17-143],< 50,–
O=C(Cc1cccc(Oc2ccccc2)c1)N1CCCc2nc(C3(c4ccccc4)CC3)[nH]c(=O)c2C1 [17-144],< 50,–
O=C(Cc1ccccc1OCc1ccccc1)N1CCCc2nc(C3(c4ccccc4)CC3)[nH]c(=O)c2C1 [17-145],< 50,< 10
O=C(Cc1cccc(OCc2ccccc2)c1)N1CCCc2nc(C3(c4ccccc4)CC3)[nH]c(=O)c2C1 [17-146],< 50,< 10
O=C(COc1cccc(C(F)(F)F)c1)N1CCCc2nc(C3(c4cccc(Cl)c4)CC3)[nH]c(=O)c2C1 [17-147],< 50,–

Structure (SMILES),IC50 [1] [nM],IC50 [2] [nM]
CC(C)c1csc(C2(c3nc4c(c(=O)[nH]3)CN(C(=O)[C@H](O)c3cccc(C(F)(F)F)c3)CCC4)CC2)c1 [18-1],< 50,< 3
O=C([C@H](O)c1cccc(C(F)(F)F)c1)N1CCCc2nc(C3(c4cc(Br)cs4)CC3)[nH]c(=O)c2C1 [18-2],< 50,< 3
O=C(C(O)c1cccc(C(F)(F)F)c1F)N1CCCc2nc(C3(c4cccs4)CC3)[nH]c(=O)c2C1 (stereo not shown) [18-3],< 50,< 3
O=C([C@H](O)c1cccc(C(F)(F)F)c1)N1CCCc2nc(C3(c4cc(C5CCCCC5)cs4)CC3)[nH]c(=O)c2C1 [18-4],< 50,< 10
O=C(C(O)c1cccc(-c2ccc(Cl)cc2)c1)N1CCCc2nc(C3(c4cccs4)CC3)[nH]c(=O)c2C1 (stereo not shown) [18-5],< 50,< 10
O=C(C(O)c1cccc(SC(F)(F)F)c1)N1CCCc2nc(C3(c4cccs4)CC3)[nH]c(=O)c2C1 (stereo not shown) [18-6],< 50,< 10
CC(C)(C)c1cccc(C(O)C(=O)N2CCCc3nc(C4(c5cccs5)CC4)[nH]c(=O)c3C2)c1 (stereo not shown) [18-7],< 50,< 10
O=C(C(O)c1cccc(S(F)(F)(F)(F)F)c1)N1CCCc2nc(C3(c4cccs4)CC3)[nH]c(=O)c2C1 (stereo not shown) [18-8],< 50,< 10
O=C([C@H](O)c1cccc(C(F)(F)F)c1)N1CCCc2nc(C3(c4cccs4)CC3)[nH]c(=O)c2C1 [18-9],< 50,< 10
O=C(C(O)c1cccc(Cl)c1F)N1CCCc2nc(C3(c4cccs4)CC3)[nH]c(=O)c2C1 (stereo not shown) [18-10],< 50,–
O=C([C@H](O)c1cccc(F)c1F)N1CCCc2nc(C3(c4cccs4)CC3)[nH]c(=O)c2C1 [18-11],< 50,–
O=C([C@H](O)c1cccc(Cl)c1)N1CCCc2nc(C3(c4cccs4)CC3)[nH]c(=O)c2C1 [18-12],< 50,–
O=C(C(O)c1cccc(C2CC2)c1)N1CCCc2nc(C3(c4cccs4)CC3)[nH]c(=O)c2C1 (stereo not shown) [18-13],< 50,–
CC(C)c1csc(C2(c3nc4c(c(=O)[nH]3)CN(C(=O)C(O)c3cccc(C(C)(C)C)c3)CCC4)CC2)c1 (stereo not shown) [18-15],< 50,< 10
CC(C)c1csc(C2(c3nc4c(c(=O)[nH]3)CN(C(=O)C(O)c3cccc(C(F)(F)F)c3F)CCC4)CC2)c1 (stereo not shown) [18-16],< 50,< 10
CC(C)c1csc(C2(c3nc4c(c(=O)[nH]3)CN(C(=O)C(O)c3cccc(Cl)c3F)CCC4)CC2)c1 (stereo not shown) [18-17],< 50,< 3
CC(C)c1csc(C2(c3nc4c(c(=O)[nH]3)CN(C(=O)C(O)c3cccc(S(F)(F)(F)(F)F)c3)CCC4)CC2)c1 (stereo not shown) [18-18],< 50,< 10
CC(C)c1csc(C2(c3nc4c(c(=O)[nH]3)CN(C(=O)C(O)c3cccc(SC(F)(F)F)c3)CCC4)CC2)c1 (stereo not shown) [18-19],< 50,< 10
CC(C)c1csc(C2(c3nc4c(c(=O)[nH]3)CN(C(=O)C(O)c3cccc(-c5cccc(OC(F)(F)F)c5)c3)CCC4)CC2)c1 (stereo not shown) [18-20],< 50,< 10
CC(C)c1csc(C2(c3nc4c(c(=O)[nH]3)CN(C(=O)C(O)c3cccc(-c5cccc(C(F)(F)F)c5)c3)CCC4)CC2)c1 (stereo not shown) [18-21],< 50,< 10

Structure (SMILES),IC50 [1] [nM],IC50 [2] [nM]
O=C([C@H](O)c1cccc(Cl)c1)N1CCCc2nc(C3(c4cc(C5CCCCC5)cs4)CC3)[nH]c(=O)c2C1 [18-22],< 50,< 3
O=C([C@H](O)c1cccc(Cl)c1)N1CCCc2nc(C3(c4cc(C5CCCC5)cs4)CC3)[nH]c(=O)c2C1 [18-23],< 50,< 3
CC(C)c1csc(C2(c3nc4c(c(=O)[nH]3)CN(C(=O)[C@H](O)c3cccc(Cl)c3)CCC4)CC2)c1 [18-24],< 50,< 3
O=C([C@H](O)c1cccc(Cl)c1)N1CCCc2nc(C3(c4cc(C5CCOCC5)cs4)CC3)[nH]c(=O)c2C1 [18-25],< 50,< 10
O=C([C@H](O)c1cccc(-c2cccc(OC(F)(F)F)c2)c1)N1CCCc2nc(C3(c4cc(-c5ccccc5)cs4)CC3)[nH]c(=O)c2C1 [18-26],< 50,< 10
O=C(Cc1cccc(-c2cccc(Cl)c2)c1)N1CCCc2nc(C3(c4cc(-c5ccccc5)cs4)CC3)[nH]c(=O)c2C1 [18-27],< 50,< 10
O=C(Cc1cccc(-c2cccc(C(F)(F)F)c2)c1)N1CCCc2nc(C3(c4cc(-c5ccccc5)cs4)CC3)[nH]c(=O)c2C1 [18-28],< 50,< 10
CC(C)c1csc(C2(c3nc4c(c(=O)[nH]3)CN(C(=O)Cc3cccc(-c5cccc(C(F)(F)F)c5)c3)CCC4)CC2)c1 [18-29],< 50,< 10
CC(C)c1csc(C2(c3nc4c(c(=O)[nH]3)CN(C(=O)Cc3cccc(-c5cccc(Cl)c5)c3)CCC4)CC2)c1 [18-30],< 50,< 10
O=C([C@H](O)c1cccc(C(F)(F)F)c1)N1CCCc2nc(C3(c4cnc(-c5ccccc5)o4)CC3)[nH]c(=O)c2C1 [18-31],< 50,–
O=C([C@H](O)c1cccc(C(F)(F)F)c1)N1CCCc2nc(C3(c4cncc(C5CCCCC5)c4)CC3)[nH]c(=O)c2C1 [19-1],< 50,< 3
CC(C)c1cncc(C2(c3nc4c(c(=O)[nH]3)CN(C(=O)[C@H](O)c3cccc(C(F)(F)F)c3)CCC4)CC2)c1 [19-2],< 50,< 10
O=C([C@H](O)c1cccc(C(F)(F)F)c1F)N1CCCc2nc(C3(c4cncc(-c5ccccc5)c4)CC3)[nH]c(=O)c2C1 [19-3],< 50,< 10
CC(C)c1cncc(C2(c3nc4c(c(=O)[nH]3)CN(C(=O)C(O)c3cccc(C(C)(C)C)c3)CCC4)CC2)c1 (stereo not shown) [19-4],< 50,< 10
CC(C)(C)c1cccc(C(O)C(=O)N2CCCc3nc(C4(c5cncc(-c6ccccc6)c5)CC4)[nH]c(=O)c3C2)c1 (stereo not shown) [19-5],< 50,< 10
O=C([C@H](O)c1cccc(C(F)(F)F)c1)N1CCCc2nc(C3(c4cncc(Br)c4)CC3)[nH]c(=O)c2C1 [19-6],< 50,–
CC(C)c1cncc(C2(c3nc4c(c(=O)[nH]3)CN(C(=O)C(O)c3cccc(C(F)(F)F)c3F)CCC4)CC2)c1 (stereo not shown) [19-7],< 50,–
O=C([C@H](O)c1cccc(C(F)(F)F)c1)N1CCCc2nc(C3(c4ccnc(Oc5ccccc5)c4)CC3)[nH]c(=O)c2C1 [19-8],< 50,–
O=C([C@H](O)c1cccc(Cl)c1)N1CCCc2nc(C3(c4ccnc(Oc5ccccc5)c4)CC3)[nH]c(=O)c2C1 [19-9],< 50,–
O=C([C@H](O)c1cccc(Cl)c1)N1CCCc2nc(C3(c4cncc(-c5cnsc5)c4)CC3)[nH]c(=O)c2C1 [19-10],< 50,–
